“And” between values parts separate entries of the source, which are not always exact repeats. Equal values may be shown once.
Tests used:
Assay type in all cases: biochemical
human cancer telomerase [1] = target: T1, human cancer telomerase (Homo sapiens, UniProt O14746); assay: Nucleoside triphosphate as telomerase substrate, dGTP replaced in modified reaction; details: modified assay; 1 mM dTTP, 3.12 μM [α-32P]dATP
T1 construct: endogenous in cells; host or cells: human cancer cells

human cancer telomerase [2] = target: T1, human cancer telomerase; assay: Nucleoside triphosphate as telomerase substrate, dATP replaced in conventional reaction; details: for incorporation into telomeric ladders, replacing dATP: conventional assay, 0.125-2 mM tested; for Substrate of 293 Telomerase: dATP analogs
Description: As described in Section 2, telomerase catalyzes the incorporation of dATP, dTTP and [α-^32P]dGTP into a (TTAGGG)3 primer. In order to determine whether dATP analog can be incorporated into telomere, native dATP in the standard telomerase reaction is replaced with various concentrations of dATP analogs. Following the reaction, telomeric products are isolated and analyzed as described in Section 2. Similarly, native dTTP in the standard telomerase reaction can be replaced by a structurally modified dTTP analog to test whether the dTTP analog can be used as a telomerase substrate.

[3] = target: T2, human 293 cell telomerase (Homo sapiens, UniProt O14746); assay: Modified telomerase assay (32P-dATP as radiolabeled substrate); details: for Inhibition of 293 cell telomerase, modified assay: competing radioactive nucleotide 3.12 μM [α32P]dATP
T2 construct: with 20 μl of S100 enzyme extract; endogenous in cells; host or cells: 293 cells (transformed human embryonic kidney), S100 extract
T2 sequence (O14746 whole entry): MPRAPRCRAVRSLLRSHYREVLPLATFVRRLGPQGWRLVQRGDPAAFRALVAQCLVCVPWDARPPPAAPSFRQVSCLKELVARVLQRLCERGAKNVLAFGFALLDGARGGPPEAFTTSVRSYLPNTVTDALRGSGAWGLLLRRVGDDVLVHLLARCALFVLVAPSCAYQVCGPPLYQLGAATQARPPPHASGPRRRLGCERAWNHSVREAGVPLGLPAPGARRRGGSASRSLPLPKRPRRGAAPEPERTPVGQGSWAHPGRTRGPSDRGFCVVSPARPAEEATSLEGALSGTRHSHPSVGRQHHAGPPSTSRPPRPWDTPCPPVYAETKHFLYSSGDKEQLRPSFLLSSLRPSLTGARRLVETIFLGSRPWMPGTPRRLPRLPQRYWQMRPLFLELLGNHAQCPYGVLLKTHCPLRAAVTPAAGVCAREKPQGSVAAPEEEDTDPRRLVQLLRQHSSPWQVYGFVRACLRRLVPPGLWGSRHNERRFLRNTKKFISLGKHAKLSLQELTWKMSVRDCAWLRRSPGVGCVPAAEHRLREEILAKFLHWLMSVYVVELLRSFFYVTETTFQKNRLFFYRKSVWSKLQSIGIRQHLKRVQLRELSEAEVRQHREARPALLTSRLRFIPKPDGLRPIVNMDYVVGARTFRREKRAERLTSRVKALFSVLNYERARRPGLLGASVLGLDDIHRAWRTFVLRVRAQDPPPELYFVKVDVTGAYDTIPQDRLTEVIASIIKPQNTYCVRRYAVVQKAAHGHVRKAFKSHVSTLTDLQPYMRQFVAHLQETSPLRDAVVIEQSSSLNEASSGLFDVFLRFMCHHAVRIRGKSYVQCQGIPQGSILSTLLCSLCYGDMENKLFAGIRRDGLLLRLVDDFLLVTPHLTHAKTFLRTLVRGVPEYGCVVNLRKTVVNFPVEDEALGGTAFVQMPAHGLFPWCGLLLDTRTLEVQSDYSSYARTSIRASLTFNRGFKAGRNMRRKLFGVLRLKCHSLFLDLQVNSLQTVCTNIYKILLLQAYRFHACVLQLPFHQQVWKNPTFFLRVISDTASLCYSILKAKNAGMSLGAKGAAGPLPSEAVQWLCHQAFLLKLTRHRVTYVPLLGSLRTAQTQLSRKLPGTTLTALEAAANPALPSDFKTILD
T2 sequence (O60832 whole entry partner): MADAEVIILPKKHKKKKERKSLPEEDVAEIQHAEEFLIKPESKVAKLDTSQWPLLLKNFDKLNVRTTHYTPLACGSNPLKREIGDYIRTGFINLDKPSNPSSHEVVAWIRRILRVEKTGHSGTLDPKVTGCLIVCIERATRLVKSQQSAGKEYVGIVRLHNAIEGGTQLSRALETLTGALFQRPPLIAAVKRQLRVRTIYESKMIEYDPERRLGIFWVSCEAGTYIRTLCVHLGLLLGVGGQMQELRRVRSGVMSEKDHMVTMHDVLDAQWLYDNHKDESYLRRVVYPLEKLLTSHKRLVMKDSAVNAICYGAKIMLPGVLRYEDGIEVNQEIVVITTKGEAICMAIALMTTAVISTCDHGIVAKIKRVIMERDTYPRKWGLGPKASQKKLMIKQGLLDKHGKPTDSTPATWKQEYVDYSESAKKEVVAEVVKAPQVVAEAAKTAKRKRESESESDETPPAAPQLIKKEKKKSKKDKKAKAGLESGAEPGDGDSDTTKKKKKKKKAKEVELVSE
T2 sequence (Q9NPE3 whole entry partner): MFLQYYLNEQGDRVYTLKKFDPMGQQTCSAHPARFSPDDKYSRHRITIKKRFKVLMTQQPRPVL
T2 sequence (Q9NX24 whole entry partner): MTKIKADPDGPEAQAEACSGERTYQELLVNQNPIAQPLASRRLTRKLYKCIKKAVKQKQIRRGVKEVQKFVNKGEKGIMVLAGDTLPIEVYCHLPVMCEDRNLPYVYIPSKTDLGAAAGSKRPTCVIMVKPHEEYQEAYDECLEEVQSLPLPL
T2 sequence (Q9NY12 whole entry partner): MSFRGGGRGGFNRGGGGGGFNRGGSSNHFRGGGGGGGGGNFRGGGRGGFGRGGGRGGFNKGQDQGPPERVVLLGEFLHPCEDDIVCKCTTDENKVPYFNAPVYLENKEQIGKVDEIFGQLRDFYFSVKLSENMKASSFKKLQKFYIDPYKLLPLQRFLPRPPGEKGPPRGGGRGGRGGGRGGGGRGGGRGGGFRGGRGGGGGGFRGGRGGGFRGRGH
Description: (§1) Telomerase was prepared from transformed human embryonic kidney 293 cell line. Human embryonic kidney 293 cells were grown in Joklik's modified MEM niedium (Sigma, St Louis, Mo.) supplemented with 5% fetal bovine serum at 37° C. in a humidified atmosphere with 5% CO2. The cells were subcultured at 1-2×10^5 cells/ml twice a week. When the cells grew to approximately 1×10^6 cells/ml, the cells (˜2×10^9 cells) were centrifuged and transferred into polypropylene centrifuge (50 ml) tubes and kept on ice. The cells were then centrifuged in a (Beckman GS-6R) centrifuge at 1200 RPM for 10 minutes at 4° C., and resuspended in PBS. The washed cells were resuspended in 15 ml Hypobuffer Mix (10 mM HEPES, pH 8.0, 3 mM KCl, 1 mM MgCl2, 1 mM dithiothreitol, 1 μM leupeptin, 0.1 mM PMSF, 10 μM pepstatin, 0.83 μg/ml chymostatin, 0.83 μg/ml antipain, and 43.2 units/ml RNase Guard) and centrifuged. The cell pellets were resuspended in 0.75×volumes Hypobuffer [Hypobuffer Mix+40 units/ml RNase Guard (Pharmacia, N.J.) to allow the cells to swell. The cell suspensions were homogenized to allow the telomerase to “leak” into the cytosolic fraction. The lysate was then poured into new, autoclaved, 3 ml polyallomer ultracentrifuge tubes and centrifuged at 100,000×g for 1 hour at 4° C. A top lipid layer was carefully removed and discarded, and the supernatant was collected. 1/50 of the volume of 5 M NaCl was added to the clear supernatant fluid to achieve a final concentration of 0.1 M. Sterile glycerol was added until the final glycerol concentration was 20%. The enzyme solution was aliquoted into Eppendorf tubes and quickly frozen in liquid nitrogen and stored at −70° C.
In the conventional telomerase assay, the concentrations of both non-radiolabeled nucleotides, dATP and dTTP, are 1 mM, and the concentration of the radiolabeled [^32P]dGTP is 1.56 μM. Because of the high concentration of dATP and dTTP, the standard assay may not be suitable for determining the potential telomerase inhibition of any “Adenine or Thymine” analogs. […] All other chemicals and reaction conditions are identical to the conventional assay.

[4] = target: T2, human 293 cell telomerase; assay: Conventional telomerase assay (32P-dGTP as radiolabel substrate); details: for Inhibition of 293 Telomerase, Conventional Assay *dGTP: up to 2 mM; for IC50: [α-32P]dGTP 1.56 μM, TTP and dATP 1 mM
Description: as §1
The assay is based on the ability of the telomerase enzyme in the S100 fractions to recognize an 18-base DNA primer with the DNA sequence (TTAGGG)3. DNA polymerization initiates from the 3′-OH group of the oligonucleotide. By reading from its complementary internal RNA template, telomerase adds a repeated set of 5′-TTAGGG-3′ to the original 18-base primer. Non-synchronous “starts” and “terminations” among the different enzyme complexes result in a degenerative set of different length DNA primers occurring in 6-base increments. Incorporation of [α-^32P]dGTP at the guanine positions of the 5′-TTAGGG-3′ sequence allows the newly synthesized DNA fragments to be visualized by autoradiography. The resulting image forms the characteristic “ladder” structure that is used to identify telomerase activity. The images are scanned using a phosphoimager or laser densitometer (Molecular Dynamics, Sunnyvale, Calif.). Comparisons of the total volumes under the corresponding peaks are used to quantitate the total amount of [α-^32P] incorporated in the primer extension reaction.
The telomerase assay was initiated by mixing 20 μl of 2×reaction mix (100 mM Tris-OAc, pH 8.5, 100 mM KOAc, 10 mM β-mercaptoethanol, 2 mM spermidine, 2 mM MgCl2, 2 mM dATP, 2 mM dTTP, 2 μM oligo primer, potential inhibitors of interest at the appropriate concentration, and 50 μCi [α^32-P]dGTP) with 20 μl of S100 enzyme extract. The reaction mixture was then incubated at 30° C. for 1 hour. The reaction was stopped by incubating sequentially with 50 μl of the stop solution (10 mM Tris pH 7.5, 20 mM EDTA, 0.1 mg/ml RNase A) and 50 μl of deproteinase solution (10 mM Tris pH 7.5, 0.5% SDS, 0.3 mg/ml Proteinase K). The mixture was extracted with 50% phenol/50% chloroform (v/v). The DNA was then precipitated by adding 2.5×volumes of cold EtOH and letting it stand overnight at −70° C. The DNAs were separated on an 8% polyacrylamide/7M urea denaturing gel at 1600 V for 1.5 hours. The gel was dried and exposed to Kodak XAR-5 film to gel in −70° C. Typical autoradiographic exposures required 3-14 days.

human telomerase = target: T3, human telomerase (Homo sapiens, UniProt O14746); assay: Cell-free telomerase inhibition, conventional or modified assay not stated
T3 construct: telomerase in S100 extracts of transformed human fetal kidney tumor 293 cells (a processive telomerase); endogenous in cells; host or cells: human cells, (S100 extract)
T3 sequence (O14746 whole entry): as the sequence (O14746 whole entry) above
T3 sequence (O60832 whole entry partner): as the sequence (O60832 whole entry partner) above
T3 sequence (Q9NPE3 whole entry partner): as the sequence (Q9NPE3 whole entry partner) above
T3 sequence (Q9NX24 whole entry partner): as the sequence (Q9NX24 whole entry partner) above
T3 sequence (Q9NY12 whole entry partner): as the sequence (Q9NY12 whole entry partner) above
Description: Selected nucleoside triphosphates were tested in one or both of the “conventional” or “modified” telomerase assays described in Methods using the human processive and the CHO non-processive telomerases. Initially, three chain-terminators were selected: 2′,3′-dideoxythymidine triphosphate (ddTTP), 3′-fluoro-2′,3′-dideoxythymidine triphosphate (F-ddTTP), and 3′-azido-2′-, 3′-dideoxythymidine triphosphate (AZ-ddTTP) as prototype agents to investigate whether they could inhibit telomerase activity. The three compounds are dTTP analogs without a 3′-OH group for subsequent chain elongation. They may either incorporate into the telomere sequence and terminate further chain elongation or compete directly with dTTP for the substrate binding site in the telomerase reaction. In either case, telomerase activity is inhibited.

[5] = 0.125 mM, read-out: % of Control
[6] = 0.25 mM, read-out: % of Control

T1 sequence (O14746 whole entry): as the sequence (O14746 whole entry) above
T1 sequence (O60832 whole entry partner): as the sequence (O60832 whole entry partner) above
T1 sequence (Q9NPE3 whole entry partner): as the sequence (Q9NPE3 whole entry partner) above
T1 sequence (Q9NX24 whole entry partner): as the sequence (Q9NX24 whole entry partner) above
T1 sequence (Q9NY12 whole entry partner): as the sequence (Q9NY12 whole entry partner) above

Row | Inhibition of 293 cell telomerase, modified assay [3] | Inhibition of 293 Telomerase, Conventional Assay *dGTP [4] | remaining activity at 500 µM ([4]; 0.5 mM, read-out: % of Control) | remaining activity at 1000 µM ([4]; 1.0 mM, read-out: % of Control) | IC50 [4] | Structure (SMILES) | incorporation into telomeric ladders, replacing dGTP (human cancer telomerase [1]) | incorporation into telomeric ladders, replacing dATP (human cancer telomerase [2]) | Substrate of 293 Telomerase (human cancer telomerase [2]) | remaining activity at 125 µM [3, 5] | remaining activity at 250 µM [3, 6] | remaining activity at 500 µM ([3]; 0.5 mM, read-out: % of Control) | remaining activity at 1000 µM ([3]; 1.0 mM, read-out: % of Control) | remaining activity at 2000 µM ([3]; 2 mM, read-out: % of Control) | remaining activity at 125 µM [4, 5] | remaining activity at 250 µM [4, 6] | remaining activity at 2000 µM ([4]; 2.0 mM, read-out: % of Control) | also measured
1 |  | No Inhibition (up to 2 mM) | 141% | 126% |  | Nc1ncnc2c1ncn2[C@H]1CC[C@@H](COP(=O)(O)OP(=O)(O)OP(=O)(O)O)O1 [NA007, 2′,3′-Dideoxyadenosine-5′-Triphosphate] |  | no apparent NA007 incorporation was detected | No product formed using (TTAGGG)^3 primer | 0% | 0% | 0% | 0% | 0% | 118% | 116% | 133% | inhibition of human telomerase activity (human telomerase; 1 mM): inhibited
2 |  |  | 0% | 0% | < 125 µM | Nc1nc2c(ncn2[C@H]2CC[C@@H](COP(=O)(O)OP(=O)(O)OP(=O)(O)O)O2)c(=O)[nH]1 [NA020, 2′,3′-Dideoxyguanosine-5′-Triphosphate] | no apparent NA020 incorporation was detected |  |  |  |  |  |  |  |  |  |  | remaining activity at 12.5 µM ([4]; 0.0125 mM, read-out: % of Control): 0%; remaining activity at 25 µM ([4]; 0.025 mM, read-out: % of Control): 0%; remaining activity at 50 µM ([4]; 0.05 mM, read-out: % of Control): 0%; remaining activity at 100 µM ([4]; 0.1 mM, read-out: % of Control): 0%; remaining activity at 200 µM ([4]; 0.2 mM, read-out: % of Control): 0%; concentration at which telomerase activity is completely inhibited ([4]; lowest concentration tested): ≤ 12.5 µM
3 | concentration-dependent inhibition | concentration-dependent inhibition |  |  | 59 µM and < 100 µM | Nc1ncnc2c1ccn2[C@H]1C[C@H](O)[C@@H](COP(=O)(O)OP(=O)(O)OP(=O)(O)O)O1 [NA023, 7-Deaza-2′-Deoxyadenosine-5′-Triphosphate] |  |  | Is a substrate Produces short telomere Substrate Inhibition |  |  |  |  |  |  |  |  | concentration above which no telomerase activity was detected (human cancer telomerase [2]; dATP replaced, 1 mM TTP, 1.56 μM [α-32P]dGTP): > 1.5 mM; remaining activity at 1 µM ([3]; 1.0 μM, read-out: % of Control): 69%; remaining activity at 2.5 µM ([3]; 2.5 μM, read-out: % of Control): 46%; remaining activity at 5 µM ([3]; 5.0 μM, read-out: % of Control): 57%; remaining activity at 7.5 µM ([3]; 7.5 μM, read-out: % of Control): 40%; remaining activity at 10 µM ([3]; 10 μM, read-out: % of Control): 23%; remaining activity at 25 µM ([3]; 25 μM, read-out: % of Control): 4%; remaining activity at 50 µM ([3]; 50 μM, read-out: % of Control): 0%; remaining activity at 75 µM ([3]; 75 μM, read-out: % of Control): 0%; remaining activity at 100 µM ([3]; 100 μM, read-out: % of Control): 0%; IC50 ([3]; [α-32P]dATP 3.12 μM, TTP and dGTP 1 mM): 8 µM; IC50 (human telomerase; Summary values, assay variant not stated, read-out: IC50): 78.5 µM

The remaining lines, values behind:

Row | Structure (SMILES) | Inhibition of 293 cell telomerase, modified assay [3] | Inhibition of 293 Telomerase, Conventional Assay *dGTP [4] | remaining activity at 500 µM ([4]; 0.5 mM, read-out: % of Control) | remaining activity at 1000 µM ([4]; 1.0 mM, read-out: % of Control) | IC50 [4] | incorporation into telomeric ladders, replacing dGTP (human cancer telomerase [1]) | incorporation into telomeric ladders, replacing dATP (human cancer telomerase [2]) | Substrate of 293 Telomerase (human cancer telomerase [2]) | remaining activity at 125 µM [3, 5] | remaining activity at 250 µM [3, 6] | remaining activity at 500 µM ([3]; 0.5 mM, read-out: % of Control) | remaining activity at 1000 µM ([3]; 1.0 mM, read-out: % of Control) | remaining activity at 2000 µM ([3]; 2 mM, read-out: % of Control) | remaining activity at 125 µM [4, 5] | remaining activity at 250 µM [4, 6] | remaining activity at 2000 µM ([4]; 2.0 mM, read-out: % of Control) | also measured
4 | Nc1nc2c(ccn2[C@H]2C[C@H](O)[C@@H](COP(=O)(O)OP(=O)(O)OP(=O)(O)O)O2)c(=S)[nH]1 [Compound 8, 6-Thio-7-deaza-2′-deoxyguanosine Triphosphate] |  |  |  |  |  | incorporation |  |  |  |  |  |  |  |  |  |  | 
5 | Nc1ncnc2c1ncn2[C@H]1C[C@H](O)[C@@H](COP(=O)(O)OP(=O)(O)CP(=O)(O)O)O1 [NA004, 2′-Deoxyadenosine-5′-β,γ-Methylene Triphosphate] | concentration-dependent inhibition | No Inhibition (Up to 2 mM) |  |  |  |  | incorporated | Replace dATP Is a substrate No substrate inhibition |  |  |  |  |  |  |  |  | % of Control ([3]; 0.125 mM): 6%; % of Control ([3]; 0.25 mM): 1.7%; % of Control ([3]; 0.5 mM): 0%; % of Control ([3]; 1.0 mM): 0%; % of Control ([3]; 2 mM): 0%; % of Control ([4]; 0.125 mM): 70%; % of Control ([4]; 0.25 mM): 72%; % of Control ([4]; 0.5 mM): 88%; % of Control ([4]; 1.0 mM): 98%; % of Control ([4]; 2.0 mM): 99%
6 | Nc1ncnc2c1ncn2[C@H]1C[C@H](O)[C@@H](COP(O)(=S)OP(=O)(O)OP(=O)(O)O)O1 (stereo partly drawn) [NA006, 2′-Deoxyadenosine-5′—O—(1-Thio-Triphosphate)] | concentration-dependent inhibition | No Inhibition (up to 2 mM) | 103% | 100% |  |  | incorporated | Is a substrate No substrate inhibition | 0% | 0% | 0% | 0% | 0% | 120% | 103% | 113% | 

— patent US6593306B1, “Methods for modulation and inhibition of telomerase” (Board of Regents, The University of Texas Systems, priority 1995, dated 2003)
